Measured values reported in patent US9000010B2, “Alkyl-heterocycle carbamate derivatives, their preparation and their therapeutic application” (Sanofi, priority 2010, dated 2015).
Counter-ions that a name gives are not always drawn.

Row | melting point | Compound
1 | 140 to 150 °C | O=C(OCc1cscn1)N1CCC(CCOc2ccc3ncccc3c2)CC1 (as salt: HCl) [No. 19, Thiazol-4-ylmethyl 4-[2-(quinolin-6-yloxy)ethyl]-piperidine-1-carboxylate]
2 | 150 to 160 °C | O=C(OCc1cscn1)N1CCC(CCOc2ccc3cnccc3c2)CC1 (as salt: HCl) [No. 20, Thiazol-4-ylmethyl 4-[2-(isoquinolin-6-yloxy)ethyl]-piperidine-1-carboxylate]
3 | 128 to 130 °C | COc1ccc2cc(OCC3CCN(C(=O)OCc4cscn4)C3)ccc2c1 (racemic) [No. 11, Thiazol-4-ylmethyl (+/−)-3-(6-methoxynaphth-2-yloxymethyl)pyrrolidine-1-carboxylate]
4 | 78 to 80 °C | O=C(OCc1cscn1)N1CCC(COc2ccc(Cl)c(Cl)c2)C1 (racemic) [No. 13, Thiazol-4-ylmethyl (+/−)-3-(3,4-dichlorophenoxymethyl)pyrrolidine-1-carboxylate]
5 | 84 to 86 °C | O=C(OCc1cscn1)N1CCC(COc2ccc(Cl)c3ccccc23)C1 (racemic) [No. 16, Thiazol-4-ylmethyl (+/−)-3-(4-chloronaphth-1-yloxymethyl)pyrrolidine-1-carboxylate]
6 | 90 to 92 °C | O=C(OCc1cscn1)N1CCC(COc2ccc3ccccc3c2)C1 (racemic) [No. 17, Thiazol-4-ylmethyl 3-(naphth-2-yloxymethyl)pyrrolidine-1-carboxylate]
7 | 115 to 117 °C | O=C(OCc1cscn1)N1CCC(COc2ccc(-c3ccc(F)cc3)cc2)C1 (racemic) [No. 22, Thiazol-4-ylmethyl 3-(4′-fluorobiphenyl-4-yloxymethyl)-pyrrolidine-1-carboxylate]
8 | 89 to 91 °C | O=C(OCc1cscn1)N1CCC(COc2ccc3c(Cl)cccc3c2)C1 (racemic) [No. 23, Thiazol-4-ylmethyl (+/−)-3-(5-chloronaphth-2-yloxymethyl)pyrrolidine-1-carboxylate]
9 | 54 to 56 °C | O=C(OCc1cscn1)N1CCC(COc2cccc(OC(F)(F)F)c2)C1 (racemic) [No. 24, Thiazol-4-ylmethyl (+/−)-3-(3-{trifluoromethoxy}-phenoxymethyl)pyrrolidine-1-carboxylate]
10 | 76 to 78 °C | CC(C)(c1ccccc1)c1ccc(OCC2CCN(C(=O)OCc3cscn3)C2)cc1 (racemic) [No. 25, Thiazol-4-ylmethyl (+/−)-3-[4-(1-methyl-1-phenyl-ethyl)phenoxymethyl]pyrrolidine-1-carboxylate]
11 | 122 to 124 °C | O=C(OCc1cscn1)N1CCC(COc2ccc3cnccc3c2)C1 (racemic) [No. 27, Thiazol-4-ylmethyl (+/−)-3-(isoquinolin-6-yloxymethyl)pyrrolidine-1-carboxylate]
12 | 94 to 96 °C | O=C(OCc1cscn1)N1CCC(COc2ccc3cccnc3c2)C1 (racemic) [No. 28, Thiazol-4-ylmethyl (+/−)-3-(quinolin-7-yloxymethyl)-pyrrolidine-1-carboxylate]
13 | 121 to 123 °C | O=C(OCc1cscn1)N1CCC(COc2ccc3ccncc3c2)C1 (racemic) [No. 29, Thiazol-4-ylmethyl (+/−)-3-(isoquinolin-7-yloxymethyl)pyrrolidine-1-carboxylate]
14 | 60 to 62 °C | O=C(OCc1cscn1)N1CCC(COc2ccc(Cl)c(C(F)(F)F)c2)C1 (racemic) [No. 30, Thiazol-4-ylmethyl (+/−)-3-(4-chloro-3-{trifluoromethyl}phenoxymethyl)pyrrolidine-1-carboxylate]
15 | 76 to 78 °C | O=C(OCc1cscn1)N1CCC(COc2ccc3c(F)cccc3c2)C1 (racemic) [No. 31, Thiazol-4-ylmethyl (+/−)-3-(5-fluoronaphth-2-yloxymethyl)pyrrolidine-1-carboxylate]
16 | 81 to 83 °C | O=C(OCc1nccs1)N1CCC(COc2ccc(-c3ccc(F)cc3)cc2)C1 (racemic) [No. 197, Thiazol-2-ylmethyl (+/−)-3-(4′-fluorobiphenyl-4-yloxymethyl)pyrrolidine-1-carboxylate]
17 | 193 to 195 °C | COc1ccc2cc(OCC3CCN(C(=O)OCc4cc(C(N)=O)no4)C3)ccc2c1 (racemic) [No. 201, 3-Carbamoylisoxazol-5-ylmethyl (+/−)-3-(6-methoxynaphth-2-yloxymethyl)pyrrolidine-1-carboxylate]
18 | 100 to 112 °C | O=C(OCc1nccs1)N1CC[C@@H](COc2ccc3ccccc3c2)C1 (single isomer, unassigned) [No. 194]
19 | 112 to 114 °C | O=C(OCc1nccs1)N1CC[C@H](COc2ccc3ccccc3c2)C1 (single isomer, unassigned) [No. 195]
20 | 53 to 55 °C | O=C(OCc1cscn1)N1CCC(CCOc2ccc(Cl)cc2)CC1 [No. 5, Thiazol-4-ylmethyl 4-[2-(4-chlorophenoxy)ethyl]-piperidine-1-carboxylate]
21 | 96 to 98 °C | O=C(OCc1cncs1)N1CCC(CCOc2ccc(F)cc2)CC1 [No. 6, Thiazol-5-ylmethyl 4-[2-(4-fluorophenoxy)ethyl]-piperidine-1-carboxylate]
22 | 93 to 97 °C | O=C(OCc1cncs1)N1CCC(CCOc2ccc(Cl)cc2)CC1 [No. 7, Thiazol-5-ylmethyl 4-[2-(4-chlorophenoxy)ethyl]-piperidine-1-carboxylate]
23 | 47 to 49 °C | O=C(OCc1cncs1)N1CCC(CCOc2ccc(C(F)(F)F)cc2)CC1 [No. 8, Thiazol-5-ylmethyl 4-[2-(4-{trifluoromethyl}phenoxy)-ethyl]piperidine-1-carboxylate]
24 | 95 to 97 °C | COc1ccc2ccc(OCCC3CCN(C(=O)OCc4cscn4)CC3)cc2c1 [No. 9, Thiazol-4-ylmethyl 4-[2-(7-methoxynaphth-2-yloxy)ethyl]-piperidine-1-carboxylate]
25 | 108 to 110 °C | N#Cc1ccc(OCCC2CCN(C(=O)OCc3cscn3)CC2)cc1 [No. 10, Thiazol-4-ylmethyl 4-[2-(4-cyanophenoxy)ethyl]-piperidine-1-carboxylate]
26 | 100 to 102 °C | COc1ccc2cc(OCCC3CCN(C(=O)OCc4cscn4)CC3)ccc2c1 [No. 14, Thiazol-4-ylmethyl 4-[2-(6-methoxynaphth-2-yloxy)-ethyl]piperidine-1-carboxylate]
27 | 88 to 90 °C | O=C(OCc1cscn1)N1CCC(CCOc2ccc3ccccc3c2)CC1 [No. 15, Thiazol-4-ylmethyl 4-[2-(naphth-2-yloxy)ethyl]-piperidine-1-carboxylate]
28 | 62 to 64 °C | O=C(OCc1cscn1)N1CCC(CCOc2ccc(-c3ccc(F)cc3)cc2)CC1 [No. 18, Thiazol-4-ylmethyl 4-[2-(4′-fluorobiphenyl-4-yloxy)-ethyl]piperidine-1-carboxylate]
29 | 106 to 108 °C | NC(=O)c1cc(COC(=O)N2CCC(CCOc3ccc(F)cc3)CC2)on1 [No. 198, 3-Carbamoylisoxazol-5-ylmethyl 4-[2-(4-fluorophenoxy)ethyl]piperidine-1-carboxylate]
